From patent publication US8999973B2, “Thieno[3,2-d]pyrimidine derivatives having inhibitory activity on protein kinases” (Hanmi Science Co., Ltd, priority 2010, dated 2015)
Residue numbers refer to the chain shown, from its start.

Columns and labels:
Bcr-Abl^T315I = biological target: T1, Bcr-Abl^T315I (Homo sapiens, UniProt P00519, T315I); test: Kinase activation assay (IC50), fluorescence polarization tyrosine kinase assay kit; assay type: biochemical; conditions: T315I mutation kinase domain (Millipore), Poly (Glu, Tyr) 4:1 substrate, FP readout
T1 construct: purchased Millipore
T1 sequence (P00519 242-493 T315I limits assumed): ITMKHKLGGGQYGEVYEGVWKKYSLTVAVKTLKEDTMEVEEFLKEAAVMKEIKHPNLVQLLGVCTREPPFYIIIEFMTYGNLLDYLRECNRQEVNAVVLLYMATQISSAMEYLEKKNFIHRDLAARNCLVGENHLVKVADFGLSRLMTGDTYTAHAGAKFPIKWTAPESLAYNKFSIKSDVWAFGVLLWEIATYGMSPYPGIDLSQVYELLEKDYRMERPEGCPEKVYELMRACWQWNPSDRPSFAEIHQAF
Procedure: (§1) Test 1: Kinase Activation Assay (IC50)
(§2) A kinase domain (Millipore) comprising the entire cytoplasmic sequences of Bcr-Abl^wt and Bcr-Abl^T315I mutation kinases and a tyrosine kinase assay kit (Panvera, P2837) were used to measure an inhibitory activation on Bcr-abl. Other kinases such as FGFR, Flt, KDR, PDGFR, Fms, Kit, Raf, Tie2, Src, and Ret were also measured by the same method. In order to prepare a sample, the each compound obtained in Examples 1 to 128 was diluted 10 times with a kinase buffer to a concentration of 10˜0.0001 μM.
(§3) The each kinase was diluted with a kinase buffer to a concentration of 30˜300 ng/assay by using the each Kd value. The kinase buffer consisted of 100 mM HEPES (PH 7.4), 25 mM MgCl2, 10 mM MnCl2, and 250 μM Na3VO4, being kept refrigerated after filtered.
(§4) The test was conducted in 96 well polystyrene round bottom plates. First, 10 μL of the diluted sample was combined with 10 μL of the enzyme solution at room temperature for 10 minutes using a shaker. 10 μL of Poly (Glu, Tyr) 4:1 (Sigma) matrix solution in an appropriate concentration and 10 μL of ATP solution (5˜300 μM) were added to the sample and subjected to a reaction at room temperature for 60 minutes in a shaker. After 60 minutes, an EDTA solution was added thereto to complete the kinase reaction and the reaction mixture was left in a shaker for 5 minutes at room temperature. A tracer, an antibody, and a fluorescence polarization (FP) diluted reaction solution were mixed at a ratio of 1:1:3 to prepare a detecting solution, 50 μL of which was added to the each sample and subjected to a reaction at room temperature for 30 minutes in a shaker. As fluorescing, light was blocked out and the FP value was measured using a FP instrument (excitation wavelength: 485 nm, and emission wavelength: 530 nm).
(§5) And the inhibition on kinase reaction was calculated for the sample in the range of 0˜100% as compared to the control group, and the concentration on x-axis at 50% inhibition was obtained as an inhibitory concentration (IC50) value.
(§6) 50% inhibitory concentration (IC50) Y=bottom+(top−bottom)/(1+10exp(X−log IC50)

Bcr-Abl^wt = biological target: T2, Bcr-Abl^wt (Homo sapiens, UniProt P00519); test: as above; assay type: biochemical; conditions: kinase domain (Millipore), Poly (Glu, Tyr) 4:1 substrate, FP readout
T2 construct: purchased Millipore
T2 sequence (P00519 242-493 limits assumed): T1 sequence (P00519 242-493 T315I limits assumed) with I74T
Procedure: as §1, §2, §3, §4, §5, §6

| Compound | IC50 (Bcr-Abl^T315I) | IC50 (Bcr-Abl^wt) |
| --- | --- | --- |
| Cc1ccc(NC(=O)c2cc(C3CC3)on2)cc1NC(=O)c1csc2c(N)ncnc12 [Example 67, N-(3-(4-aminothieno[3,2-d]pyrimidine-7-carboxyamido)-4-methylphenyl)-5-cyclopropylisoxazol-3-carboxamide] | 1 to 10 µM | 0.001 to 0.1 µM |
| Cc1cc(C(=O)Nc2ccc(C)c(NC(=O)c3csc4c(N)ncnc34)c2)n(Cc2ccc(F)cc2)n1 [Example 68, 4-amino-N-(5-(1-(4-fluorobenzyl)-3-methyl-1H-pyrazole-5-carboxyamido)-2-methylphenyl)thieno[3,2-d]pyrimidine-7-carboxamide] | 1 to 10 µM | 1 to 10 µM |
| Cc1ccc(NC(=O)c2ccc(CN3CC[C@H](N(C)C)C3)c(C(F)(F)F)c2)cc1NC(=O)c1csc2c(NC3CC3)ncnc12 [Example 76, (S)-4-(cyclopropylamino)-N-(5-(4-((3-(dimethylamino)pyrrolidin-1-yl)methyl)-3-(trifluoromethyl)benzoamido)-2-methylphenyl)thieno[3,2-d]pyrimidine-7-carboxamide] | 0.001 to 0.1 µM | 0.001 to 0.1 µM |
| CNc1ncnc2c(C(=O)Nc3cc(NC(=O)c4cc(-n5cnc(C)c5)cc(C(F)(F)F)c4)ccc3C)csc12 [Example 78, N-(2-methyl-5-(3-(4-methyl-1H-imidazole-1-yl)-5-(trifluoromethyl)benzoamido)phenyl)-4-(methylamino)thieno[3,2-d]pyrimidine-7-carboxamide] | 0.1 to 1 µM | 0.001 to 0.1 µM |
| Cc1ccc(NC(=O)c2ccc(CN3CCCN(C)CC3)c(C(F)(F)F)c2)cc1NC(=O)c1csc2c(NC3CC3)ncnc12 [Example 87, 4-(cyclopropylamino)-N-(2-methyl-5-(4-((4-methyl-1,4-diazepan-1-yl)methyl)-3-(trifluoromethyl)benzoamido)phenyl)thieno[3,2-d]pyrimidine-7-carboxamide] | 0.001 to 0.1 µM | 0.001 to 0.1 µM |
| CN(C)[C@H]1CCN(c2cc(C(=O)Nc3ccc(F)c(NC(=O)c4csc5c(NC6CC6)ncnc45)c3)cc(C(F)(F)F)c2)C1 [Example 107, (S)-4-(cyclopropylamino)-N-(5-(3-(3-(dimethylamino)pyrrolidine-1-yl)-5-(trifluoromethyl)benzoamido)-2-fluorophenyl)thieno[3,2-d]pyrimidine-7-carboxamide] | 0.1 to 1 µM | 0.001 to 0.1 µM |
| Cc1cn(-c2cc(C(=O)Nc3ccc(F)c(NC(=O)c4csc5c(NC6CC6)ncnc45)c3)cc(C(F)(F)F)c2)cn1 [Example 121, 4-(cyclopropylamino)-N-(2-fluoro-5-(3-(4-methyl-1H-imidazole-1-yl)-5-(trifluoromethyl)benzoamido)phenyl)thieno[3,2-d]pyrimidine-7-carboxamide] | 0.001 to 0.1 µM | 0.001 to 0.1 µM |

Further lines, results first:

| IC50 (Bcr-Abl^T315I) | IC50 (Bcr-Abl^wt) | Compound |
| --- | --- | --- |
| 1 to 10 µM | 0.001 to 0.1 µM | Cc1ccc(NC(=O)c2cccc(C(F)(F)F)c2)cc1NC(=O)c1csc2c(NC3CCCC3)ncnc12 [Example 71, 4-(cyclopentylamino)-N-(2-methyl-5-(3-(trifluoromethyl)benzamido)phenyl)thieno[3,2-d]pyrimidine-7-carboxamide] |
| 0.001 to 0.1 µM | 0.001 to 0.1 µM | Cc1ccc(NC(=O)c2cc(-n3ccnc3C)cc(C(F)(F)F)c2)cc1NC(=O)c1csc2c(NC3CC3)ncnc12 [Example 83, 4-(cyclopropylamino)-N-(2-methyl-5-(3-(2-methyl-1H-imidazole-1-yl)-5-(trifluoromethyl)benzoamido)phenyl)thieno[3,2-d]pyrimidine-7-carboxamide] |
| 0.1 to 1 µM | 0.001 to 0.1 µM | Cc1ccc(NC(=O)c2cc(N3CCOCC3)cc(C(F)(F)F)c2)cc1NC(=O)c1csc2c(NC3CC3)ncnc12 [Example 86] |
| 0.001 to 0.1 µM | 0.001 to 0.1 µM | Cc1ccc(NC(=O)c2cc(N3CCCN(C)CC3)cc(C(F)(F)F)c2)cc1NC(=O)c1csc2c(NC3CC3)ncnc12 [Example 93, 4-(cyclopropylamino)-N-(2-methyl-5-(3-(4-methyl-1,4-diazepan-1-yl)-5-(trifluoromethyl)benzoamido)phenyl)thieno[3,2-d]pyrimidine-7-carboxamide] |
| 0.1 to 1 µM | 0.001 to 0.1 µM | CCN1CCN(c2cc(C(=O)Nc3ccc(C)c(NC(=O)c4csc5c(NC6CC6)ncnc45)c3)cc(C(F)(F)F)c2)CC1 [Example 110, 4-(cyclopropylamino)-N-(5-(3-(4-ethylpiperazin-1-yl)-5-(trifluoromethyl)benzoamido)-2-methylphenyl)thieno[3,2-d]pyrimidine-7-carboxamide] |
| 0.1 to 1 µM | 0.1 to 1 µM | Cc1ccc(NC(=O)c2cc(N3CCC[C@H]3C)cc(C(F)(F)F)c2)cc1NC(=O)c1csc2c(NC3CC3)ncnc12 [Example 113, (R)-4-(cyclopropylamino)-N-(2-methyl-5-(3-(2-methylpyrrolidine-1-yl)-5-(trifluoromethyl)benzoamido)phenyl)thieno[3,2-d]pyrimidine-7-carboxamide] |
| 0.001 to 0.1 µM | 0.001 to 0.1 µM | Cc1ccc(NC(=O)c2cc(NC3CCN(C)CC3)cc(C(F)(F)F)c2)cc1NC(=O)c1csc2c(NC3CC3)ncnc12 [Example 116, 4-(cyclopropylamino)-N-(2-methyl-5-(3-(1-methylpiperidine-4-ylamino)-5-(trifluoromethyl)benzoamido)phenyl)thieno[3,2-d]pyrimidine-7-carboxamide] |
